Where two headings read alike, the source gives them in different places.
Key:
Format in all cases: cell-based
[1] = system: L3055 BL cells; assay: DNA synthesis by [3H]-thymidine incorporation in L3055 cells; conditions: for influence of pre-treatment on 5-HT-dependent inhibition of DNA synthesis (in words): cells pre-treated with agent before 5-HT; for inhibition at 50 µM: L3055, 5-HT 50 μM; for effect on DNA synthesis (in words): single dose, range of concentrations, [3H]-thymidine incorporation at 24 hr
Protocol: (§1) DNA synthesis was determined by measuring ^3H-thymidine ([^3H]Tdr; Amersham, UK) incorporation into cellular DNA. Cells were cultured in 200 μL of supplemented medium at densities and for times indicated below in flat-bottomed, 96-well tissue culture plates (Becton Dickinson, Oxford, U K) then pulsed for the final 4 h with 50 μl of 10 μCi/ml [^3H]Tdr before harvesting on a Skatron cell harvester (Helis Bio Ltd, Newmarket, UK).

[2] = system: group I BL cell lines Mutu I, Elijah, and BL2; assay: DNA synthesis by [3H]-thymidine incorporation in other group I BL cell lines; conditions: 125 μM 5-HT, 24 hr
Protocol: as §1
(§2) Three other group I BL cell lines were also investigated, namely: Mutu I, Elijah, and BL2.

[3] = system: Mutu III, an apoptosis resistant (group III) BL cell line; assay: DNA synthesis by [3H]-thymidine incorporation in Mutu III; conditions: 125 μM 5-HT, 24 hr
Protocol: as §1, §2

[4] = system: T-cell leukaemia line, Jurkat; assay: 5-HT sensitivity of Jurkat line; conditions: not shown
[5] = system: L3055 cells; assay: Cell cycle analysis (propidium iodide, flow cytometry); conditions: 24 hr; each at its maximal concentration (5-HT 150 μM, fluoxetine 10 μM, anti-μ chain antibody 10 μg/ml)
Protocol: Cells cultured under conditions indicated below were harvested into 100 μl of 1×PBS followed by 400 μl cell cycle buffer containing Triton X-100 and propidium iodide and left to incubate at 4° C. for 1 hr to allow staining of DNA. The degree of fluorescence emitted by bound PI is directly proportional to the amount of DNA in each cell and was measured by flow cytometry as previously described (MacDonald I, et al. Blood (1996); 87:1147-1154). Results are expressed as percentage of viable cells residing in each phase of the cycle.

[6] = system: L3055 cells; assay: Viability by FACS forward versus side light scatter
Protocol: (§3) Changes in the viability of cells cultured under conditions indicated below were quantified by assessment of forward and 90° (side) light scatter of cells as previously described (Dive C, et al. Biochimica Biophysica Acta (1992); 1133:275-285) using an EPICS XL-MCL flow cytometer (Beckman Coulter, Miami, Fla., USA). Prior to analysis, cells were harvested into polythene FACS tubes, and fixed at 4° C. in 400 μl of FACS buffer [PBS with 5% NGS and 2% Formaldehyde] (BDH/MERCK). Cells were gated in two populations (viable and dead) according to their forward and side light scatter. Viability was expressed as a percentage of the total number of cells residing in the viable and non-viable gates. Cells were also analysed according to Schuurhuis et al (Schuurhuis G J, et al. Exp. Haematol. (1997); 25:754-759) in order to assess the percentages within treated populations of those that were viable, apoptotic, or necrotic. Syto 16 was added at a concentration of 250 nM in PBS to 500,000 cells and incubated at RT for 30 min, at which time 5 μg/ml propidium iodide (PI) was added. Samples were then analysed immediately by FACS and a 2D plot generated of syto 16 fluorescence versus PI fluorescence: syto 16 is taken up only by viable cells whereas Pi exclusively enters necrotic cells—syto 16^−ve/PI^−ve cells are deemed apoptotic.

[7] = system: L3055 cells; assay: Syto 16 / propidium iodide staining (viable, apoptotic, necrotic); conditions: increasing concentrations, 24 hr
Protocol: as §3

[8] = system: L3055 cells; assay: Mitochondrial depolarisation with JC-1 dye; conditions: following exposure to 5-HT; not shown
Protocol: Apoptosis was assessed by staining cells with acridine orange and visualising nuclear morphology exactly as described previously (Gordon J, et al. Cell Death. Diff. (2000); 7:785-794). Viable cells display a homogeneous chromatin-staining pattern, whereas apoptotic cells characteristically show condensed and fragmented chromatin. Mitochondrial depolarisation was assessed using the JC-1 cationic dye. Cells were incubated with 10 μM of JC-1 for 30 min before being visualised on a LSM 510 confocal microscope (Zeiss, Germany). […] Mitochondrial depolarisation is indicated by a decrease in the red/green fluorescence ratio.

[9] = system: L3055 cells; assay: Caspase activity (FAM-VAD-FMK, FACS); conditions: for effect on number of cells showing caspase activity (in words): single dose for 24 hours, fluoxetine 10 μM, paroxetine 10 μM, citalopram 100 μM
Protocol: Caspase activity was detected using the CaspaTag Caspase Activity Kit (Intergen, Oxford, UK). Cells cultured under the conditions indicated below were harvested into 300 μl of culture medium at a cell density of 10^6cells/ml, followed by the addition of […] of a 30×working solution of FAM-VAD-FMK (a carboxy fluorescent tagged caspase inhibitor) (Intergen Co., USA). Cells were then incubated for 1 hr at 37° C. under 5% CO2 while protecting the tubes from light. At the end of the incubation, they were washed twice in 2 ml of 1×washing buffer, followed by addition of 2 μl of PI to distinguish dead cells from live cells, then analysed on an EPICS XL-MCL flow cytometer or by confocal microscopy. For the latter, treated cells were harvested into 300 μl of culture medium containing 10 μl of FAM-VAD-FMK before incubating for 1 hr under the conditions described above. Next, 1.5 μl of Hoechst 33342 stain was added for 5 min, and cells were washed twice in 2 ml of 1×washing buffer following the addition of 1 μl of PI.

[10] = system: L3055 cells; assay: OxyDNA assay of oxidative damage to DNA; conditions: 6 hr; 150 μM 5-HT or 30 μM H2O2
Protocol: Oxidative damage to DNA was quantified using the OxyDNA assay (Biotrin, Dublin, Ireland). Following culture of cells under conditions indicated below, they were washed first in 1×PBS then in wash solution followed by addition of 100 μl of blocking solution with a 1 hr incubation at 37° C. On washing twice in working solution, cells were then incubated with 100 μl FITC-conjugate for 1 hr in the dark at RT before being washed twice in washing solution and once in PBS. Finally, cells were resuspended in FACS buffer and analysed on an EPICS XL-MCL flow cytometer.
While the above experiments offer evidence that oxidative stress was not the cause of 5-HT-induced apoptosis in BL cells, further more direct examination of the generation of potential reactive oxygen species (ROS) as a consequence of 5-HT uptake was undertaken. For this the OxyuDNA assay was used, which quantifies 8-oxo-7,8-dihydro-2′-deoxyguanosine (8-oxodGuo) residues that are generated as a result of oxidative damage to DNA (see methods section 1.1.8 above).

[11] = system: L3055 cells; assay: Intracellular free Ca2+; conditions: data not shown
Excerpt: The increase in intracellular free Ca^2+ is known to be an important step in the induction of apoptosis.

[12] = system: Bcl-2 transfected BL cell line; assay: Viability (FACS light scatter) of Bcl-2 transfected BL cell line
Protocol: Group I Burkitt's lymphoma cell lines L3055 (EBV^neg), BL2 (EBV^neg), Elijah (EBV^pos), and MUTU I (EBV^pos) were maintained in early passage as described previously (Baker M P, Eliopoulos E, Young L S, Armitage R J, Gregory C D, Gordon J. Blood (1998); 92:2830-2843). The late passage group III BL line MUTU III (EBV^pos) was also used with all cells cultured in RPMI 1640 medium supplemented with 10% Serum Supreme (BioWhittaker, Wokingham, UK), 2 mM glutamine, 100 IU/ml penicillin and 100 μg/ml streptomycin. […]
Changes in the viability of cells cultured under conditions indicated below were quantified by assessment of forward and 90° (side) light scatter of cells as previously described (Dive C, et al. Biochimica Biophysica Acta (1992); 1133:275-285) using an EPICS XL-MCL flow cytometer (Beckman Coulter, Miami, Fla., USA). […] Viability was expressed as a percentage of the total number of cells residing in the viable and non-viable gates. Cells were also analysed according to Schuurhuis et al (Schuurhuis G J, et al. Exp. Haematol. (1997); 25:754-759) in order to assess the percentages within treated populations of those that were viable, apoptotic, or necrotic. […]

SMILES: C#CCN(C)[C@H](C)Cc1ccccc1 [deprenyl]
- influence of pre-treatment on 5-HT-dependent inhibition of DNA synthesis (in words) [1]: the same outcome was observed

SMILES: C#CCN(C)Cc1ccccc1 [pargyline]
- effect of agent by itself on DNA synthesis (in words) ([1]; 100 μM pargyline, no 5-HT): no deleterious effect by itself
- influence of pre-treatment on 5-HT-dependent inhibition of DNA synthesis (in words) [1]: failed to influence 5-HT-induced cessation of DNA synthesis

SMILES: NCCc1c[nH]c2ccc(O)cc12 [Example 5-HT, Serotonin]
- effect on level of DNA synthesis (in words) ([1]; 1 μM 5-HT, very early passage, lower cell numbers, data not shown): significant reduction
- inhibition at 50 µM ([1]; cells plated at 2×10^4 per well): ~35%
- inhibition at 50 µM ([1]; cells plated at 5×10^3 per well): > 90%
- inhibition at 50 µM ([1]; cells plated at 10^4 per well): ~70%
- IC50 ([1]; L3055, read-out: 5-HT required to achieve 50% inhibition of DNA synthesis, plated at 2.5×10^4 per ml (5×10^3 per well)): ~5 µM
- IC50 ([1]; L3055, read-out: 5-HT required to achieve 50% inhibition of DNA synthesis, plating density 10^5 per ml (2×10^4/well)): > 50 µM
- effect on DNA synthesis (in words) [1]: caused a reduction in DNA synthesis in a concentration-dependent manner
- effect on DNA synthesis (in words) [2]: substantial decrease in DNA synthesis
- effect on DNA synthesis (in words) [3]: only marginally decreased DNA synthesis
- sensitivity to 5-HT actions (in words) [4]: insensitive
- cell cycle status (in words) [5]: accumulation of arresting cells in the G0/G1 compartment
- cells with light scatter characteristics of dead cells (in words) ([6]; 1 to 150 μM, 24 hr): dramatic concentration-dependent increase in the number of L3055 cells acquiring light scatter characteristics of dead cells
- viability at 150 µM ([6]; L3055, 24 h, read-out: % viable cells (24 h)): 21.3 ± 8.65%
- number of viable cells (syto 16+ve/PI−ve) (in words) [7]: decreased in a concentration-dependent manner
- mitochondrial membrane potential (in words) [8]: loss of mitochondrial membrane potential
- % caspase activation (6 h) ([9]; 5-HT 150 μM, fluoxetine 5 μM, paroxetine 2 μM, citalopram 10 μM, means ± S.E.M. of 3, control 27.3 ± 1.20): 58.3 ± 2.03%
- percentage of cells showing caspase activity ([9]; 6 hr 5-HT treatment, background level 29%): 59%
- level of oxidatively damaged DNA (8-oxoguanosine residues) (in words) [10]: no increase in the level of oxidatively damaged DNA

SMILES: Fc1ccc([C@@H]2CCNC[C@H]2COc2ccc3c(c2)OCO3)cc1 [paroxetine]
- influence of pre-treatment on 5-HT-dependent inhibition of DNA synthesis (in words) [1]: substantially reversed
- effect on DNA synthesis (in words) [1]: dose dependent inhibitory effect
- effect on number of cells showing caspase activity (in words) [9]: significant effect on the numbers of cells showing caspase activity
- basal Ca2+ (in words) [11]: increase in basal Ca^2+

SMILES: CN(C)CCCN1c2ccccc2CCc2ccccc21 [imipramine]
- effect on DNA synthesis (in words) [1]: dose dependant effect
- survival (live cells) ([6]; native cell line (panel I, FIG. 26)): 30%
- effect on number of cells showing caspase activity (in words) [9]: significant effect on the number of cells exhibiting caspase activity
- cell killing in Bcl-2 transfected versus native BL cell line (in words) ([12]; 24 hrs): greatly reduced
- survival (live cells) ([12]; Bcl-2 transfected BL cell line (panel II, FIG. 26)): 91%

SMILES: C#CCN(C)CCCOc1ccc(Cl)cc1Cl [clorgyline]
- influence of pre-treatment on 5-HT-dependent inhibition of DNA synthesis (in words) [1]: the same outcome was observed

SMILES: OO [Example H2O2, H2O2]
- level of oxidatively damaged DNA (8-oxoguanosine residues) (in words) [10]: large increase in the level of 8-oxoguanosine residues generated

SMILES: CCN(CC)CCOC(=O)c1cc(Cl)c(N)cc1OC [SDZ205-557]
- influence of pre-treatment on 5-HT-dependent inhibition of DNA synthesis (in words) [1]: failed to influence the ability of 5-HT to inhibit DNA synthesis
